Data as given in patent US7135568B2, “Substituted pyrazolopyrimidines and thiazolopyrimidines” (Gruenenthal GmbH, priority 2001, dated 2006).
Structures can show the parent of a compound that is named as a salt.

Columns and labels:
[1] = target: T1, nucleoside transport protein (Homo sapiens, UniProt Q99808); assay: inhibition of the nucleoside transport protein ([3H]NBl displacement, erythrocyte membrane); assay type: binding; conditions: 1.5 nM [3H]NBl; for % Displacement at 10 μM: 10 μM compound; for Ki: 30 minutes at 25° C.
T1 construct: 100 μl of an aqueous suspension of erythrocyte membrane; from tissue; host or cells: erythrocyte membrane
T1 sequence (Q99808 1-456): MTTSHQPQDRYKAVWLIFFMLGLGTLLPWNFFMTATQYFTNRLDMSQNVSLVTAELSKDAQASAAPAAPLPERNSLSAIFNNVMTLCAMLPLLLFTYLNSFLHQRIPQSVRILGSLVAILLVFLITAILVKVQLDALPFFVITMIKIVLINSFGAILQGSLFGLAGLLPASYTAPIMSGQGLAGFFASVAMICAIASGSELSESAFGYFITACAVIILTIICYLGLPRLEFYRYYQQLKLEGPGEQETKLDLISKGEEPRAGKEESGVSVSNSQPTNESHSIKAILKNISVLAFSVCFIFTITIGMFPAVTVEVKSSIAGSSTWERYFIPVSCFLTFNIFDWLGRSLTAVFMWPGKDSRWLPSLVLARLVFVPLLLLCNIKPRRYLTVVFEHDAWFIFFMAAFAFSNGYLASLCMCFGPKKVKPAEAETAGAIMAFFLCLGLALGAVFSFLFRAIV
Experimental: The following test conditions were chosen for the determination of the inhibition of the nucleoside transport protein:
100 μl of the substance solution in aqueous solution with DMSO as solution aid were incubated for 30 minutes at 25° C. with 100 μl of 1.5 nM [^3H]NBl ([…]), 100 μl of buffer (50 mM Tris.HCl, pH 7.4) and 100 μl of an aqueous suspension of erythrocyte membrane. After the incubation the test mixture was filtered off (Whatman GF/C Filter, post-washed with 50 mM Tris.HCl). The filters were transferred to test tubes, 3.5 ml of scintillation fluid were added, and after 2 hours the radioactivity was measured in a β-counter.

[2] = test system: (+)-MK801 binding site of the ionotropic NMDA receptor; assay: (3H)-(+)-MK801 receptor binding test on rat brain membrane homogenate; conditions: 10 μmole/l compound, 1 nmole/l (3H)-(+)-MK801, mean values of double determinations
Experimental: The investigations to determine the NMDA antagonistic action of the compounds according to the invention were carried out on brain membrane homogenates (rat brain homogenate minus cerebellum, pons and medulla oblongata from male Wistar strain rats (Charles River, Sulzfeld, Germany)).
For this, freshly prepared rat brains were digested, after removal of the cerebellum, pons and medulla oblongata, in 50 mmole/l Tris/HCl (pH 7.7) in a Polytron homogeniser (model PT3000, Kinematika AG, Littau, Switzerland) at 6,000 revs. per minute (rpm) for 1 minute while cooling in ice and then centrifuged for 15 minutes at 4° C. and 60,000 g. The supernatant was decanted and discarded, and the membrane pellet was taken up again in 50 mmole/l of Tris/HCl (pH 7.7) and digested in a homogeniser at 2,000 rpm for 1 minute and recentrifuged for 15 minutes at 4° C. and 60,000 g. The supernatant was discarded again and the membrane pellet was homogenised in 50 mmole/l Tris/HCl (pH 7.7) (2,000 rpm for 1 minute) and aliquot portions were frozen at −70° C.
For the receptor binding test aliquots were in each case thawed out and then centrifuged for 15 minutes at 4° C. and 60,000 g. After decanting and discarding the supernatant, the membrane pellet for the binding test was taken up in binding test buffer and homogenised (2,000 rpm for 1 minute). 5 mmole/l Tris/HCl (pH 7.7) supplemented with 30 μmole/l of glycine and 100 μmole/l of glutamic acid was used as binding test buffer.
1 nmole/l of (^3H)-(+)-MK801 ((5R, 10S)-(+)-5-methyl-10,11-dihydro-5H-dibenzo(a,d)cyclohepten-5,10-imine (NET-972, NEN, Cologne, Germany) was added as radioactively labelled ligand. The proportion of non-specific binding was determined in the presence of 10 μmole/l of non-radioactively labelled (+)-MK801 (RBI/Sigma, Deisenhofen, Germany). In further assays the respective compounds according to the invention were added in concentration series and the displacement of the radioactive ligand from its specific binding to the NMDA receptor was measured.
The batches were incubated in each case for 40 minutes at 25° C. and then harvested by filtration to determine the radioactive ligand bound to the brain membrane homogenate. The radioactivity retained by the filter was measured after adding a scintillator (“Ready Protein” scintillator, Beckmann Coulter GmbH, Krefeld, Germany) in a β-counter (Packard TR^1-CARB Liquid Scintillation Analyser 2000CA, Packard Instrument, Meriden, Conn. 06450, USA).
The resulting percentage inhibition of the specific binding of the ligand (^3H)-(+)-MK801 in the presence of in each case 10 μmole/l of the respective compound according to the invention serves as a measure of the affinity of this compound for the (+)-MK801 binding site of the ionotropic NMDA receptor. The affinities are given in Table 2 as mean values of double determinations on selected examples.

[3] = target: T2, recombinant human adenosine A3 receptor (Homo sapiens, UniProt P0DMS8); assay: adenosine A3 receptor displacement assay with [125I]AB-MECA; assay type: binding; conditions: compound concentration 3 μM; ligand 0.1 nM [125I]AB-MECA
T2 construct: expressed in transfected cells
T2 sequence (P0DMS8 1-318): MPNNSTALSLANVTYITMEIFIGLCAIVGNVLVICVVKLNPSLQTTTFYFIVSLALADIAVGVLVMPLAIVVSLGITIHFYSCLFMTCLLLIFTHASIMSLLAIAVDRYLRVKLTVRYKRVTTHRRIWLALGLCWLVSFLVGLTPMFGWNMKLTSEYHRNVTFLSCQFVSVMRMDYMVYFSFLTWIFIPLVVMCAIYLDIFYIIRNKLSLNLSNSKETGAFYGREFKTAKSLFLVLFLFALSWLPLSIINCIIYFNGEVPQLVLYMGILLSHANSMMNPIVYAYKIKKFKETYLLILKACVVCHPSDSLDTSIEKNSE
Experimental: The dihydrochloride of Example 147 (prepared from Example 147 in a similar manner to Examples 145 and 152) was investigated as regards its affinity for the recombinant human adenosine A3 receptor in a displacement assay (C. A. Salvatore et al., Process. Natl. Acad. Sci. USA (1993), Vol. 90, 10365–10369). At a ligand concentration of 0.1 nM [^125I]AB-MECA (N^6-(4-amino-3-[^125I]iodobenzyladenosine) the displacement at a concentration of 3 μM was 93%.

Row | SMILES | Ki [1] | % Inhibition of the specific binding of the ligand (3H)-(+)-MK801 [2] | also measured
1 | COc1ccc(C2CC(c3ccc([N+](=O)[O-])o3)Nc3c(Br)c(-c4ccccc4)nn32)cc1OC (stereo not shown) [Example 39, 3-bromo-7-(3,4-dimethoxyphenyl)-5-(5-nitrofuran-2-yl)-2-phenyl-tetrahydropyrazolo[1,5-a]pyrimidine] |  |  | % Displacement at 10 μM [1]: 40%
2 | COc1ccc(C2CC(c3ccc([N+](=O)[O-])s3)Nc3c(N=Nc4ccccc4)c(O)nn32)cc1OC (stereo not shown) [Example 53, 7-(3,4-dimethoxyphenyl)-5-(5-nitrothiophen-2-yl)-3-phenylazotetrahydropyrazolo[1,5-a]pyrimidin-2-ol] | 600 nM |  | 
3 | COc1ccc(C2CC(c3ccc([N+](=O)[O-])s3)Nc3c(Br)c(-c4ccccc4)nn32)cc1OC (stereo not shown) [Example 54, 3-bromo-7-(3,4-dimethoxyphenyl)-5-(5-nitrothiophen-2-yl)-2-phenyltetrahydropyrazolo[1,5-a]pyrimidine] | 1300 nM |  | 
4 | COc1ccc(C2CC(c3ccc([N+](=O)[O-])s3)Nc3c(C#N)c(SC)nn32)cc1OC (stereo not shown) [Example 55, 7-(3,4-dimethoxyphenyl)-2-methylsulfanyl-5-(5-nitrothiophen-2-yl)-tetrahydropyrazolo[1,5-a]pyrimidine-3-carbonitrile] | 400 nM |  | 
5 | COc1ccc(C2CC(c3ccc([N+](=O)[O-])s3)Nc3c(C#N)cnn32)cc1OC (stereo not shown) [Example 56, 7-(3,4-dimethoxyphenyl)-5-(5-nitrothiophen-2-yl)-tetrahydropyrazolo[1,5-a]pyrimidine-3-carbonitrile] |  |  | % Displacement at 10 μM [1]: 43%
6 | COc1ccc(C2CC(C(=O)c3ccccc3)Nc3c(C#N)c(SC)nn32)cc1OC (stereo not shown) [Example 64, 5-benzoyl-7-(3,4-dimethoxyphenyl)-2-methylsulfanyltetrahydropyrazolo[1,5-a]pyrimidine-3-carbonitrile] | 600 nM |  | 
7 | COc1ccc(C2CC(CCc3ccccc3)Nc3c(C#N)c(SC)nn32)cc1OC (stereo not shown) [Example 111, 7-(3,4-dimethoxyphenyl)-2-methylsulfanyl-5-phenethyl-tetrahydropyrazolo[1,5-a]pyrimidine-3-carbonitrile] | 300 nM |  | 
8 | OC1=NN2C(=NC(c3ccccn3)CC2c2ccccc2)C1N=Nc1ccccc1 (stereo not shown) [Example 140, 7-phenyl-3-phenylazo-5-pyridin-2-yl-3,5,6,7-tetrahydropyrazolo[1,5-a]pyrimidin-2-ol] |  | 44% | 
9 | CCOC(=O)C1C=NN2C1=NC(c1ccccn1)CC2Sc1ccccc1 (stereo not shown) [Example 141, 7-phenylsulfanyl-5-pyridin-2-yl-3,5,6,7-tetrahydropyrazolo[1,5-a]pyrimidine-3-carboxylic acid ethyl ester] |  | 45% | 
10 | OC1=NN2C(=NC(c3ccccn3)CC2Sc2ccccc2)C1N=Nc1ccccc1 (stereo not shown) [Example 142, 3-phenylazo-7-phenylsulfanyl-5-pyridin-2-yl-3,5,6,7-tetrahydropyrazolo[1,5-a]pyrimidin-2-ol] |  | 75% | 
11 | BrC1C=NN2C1=NC(c1ccccn1)CC2Sc1ccccc1 (stereo not shown) [Example 143, 3-bromo-7-phenylsulfanyl-5-pyridin-2-yl-3,5,6,7-tetrahydropyrazolo[1,5-a]pyrimidine] |  | 49% | 
12 | N#CC1C=NN2C1=NC(c1ccccn1)CC2Sc1ccccc1 (stereo not shown) [Example 144, 7-phenylsulfanyl-5-pyridin-2-yl-3,5,6,7-tetrahydropyrazolo[1,5-a]pyrimidine-3-carbonitrile] |  | 45% | 
13 | COc1ccc(C2CC(c3ccccn3)Nc3c(Br)c(-c4ccccc4)nn32)cc1OC (stereo not shown) [Example 145, 3-bromo-7-(3,4-dimethoxyphenyl)-2-phenyl-5-pyridin-2-yl-4,5,6,7-tetrahydropyrazolo[1,5-a]pyrimidine dihydrochloride] | 400 nM |  | 
14 | COc1ccc(C2CC(c3ccc([N+](=O)[O-])o3)Nc3c(C#N)c(SC)nn32)cc1OC (stereo not shown) [Example 153, 7-(3,4-dimethoxyphenyl)-2-methylsulfanyl-5-(5-nitrofuran-2-yl) tetrahydropyrazolo[1,5-a]pyrimidine-3-carbonitrile] |  |  | % Displacement at 10 μM [1]: 50%
15 | CCOC(=O)c1cnn2c1NC(c1ccccn1)CC2c1ccc(OC)c(OC)c1 (stereo not shown) [Example 154, 7-(3,4-dimethoxyphenyl)-5-pyridin-2-yl-4,5,6,7-tetrahydropyrazolo[1,5-a]pyrimidine-3-carboxylic acid ethyl ester] |  |  | % Displacement at 10 μM [1]: 41%
16 | COc1ccc(C2CC(c3ccccn3)Nc3c(Br)c(-c4ccccc4)nn32)cc1OC (stereo not shown) [dihydrochloride of Example 147, 3-bromo-7-(3,4-dimethoxyphenyl)-2-phenyl-5-pyridin-2-yl-tetrahydropyrazolo[1,5-a]pyrimidine] |  |  | displacement [3]: 93%
